Measurements reported in US20040023862A1, “Uses of bombesin receptor 3” (SmithKline Beedham p. l. c., priority 2000, published 2004).
Non-standard residues stand in square brackets, D forms with d. Residues, ends and D or L forms follow the SMILES beside them. Nle = CCCC[C@H](N)C(=O)O; βAla = NCCC(=O)O

Assays:
BB1 receptor = BB1 receptor (Homo sapiens, UniProt P28336); conditions: from Smart (1998); cited from earlier work
BB2 receptor = BB2 receptor (Homo sapiens, UniProt P30550); conditions: from Smart (1998); cited from earlier work
Sequence of BB2 receptor (P30550 whole entry): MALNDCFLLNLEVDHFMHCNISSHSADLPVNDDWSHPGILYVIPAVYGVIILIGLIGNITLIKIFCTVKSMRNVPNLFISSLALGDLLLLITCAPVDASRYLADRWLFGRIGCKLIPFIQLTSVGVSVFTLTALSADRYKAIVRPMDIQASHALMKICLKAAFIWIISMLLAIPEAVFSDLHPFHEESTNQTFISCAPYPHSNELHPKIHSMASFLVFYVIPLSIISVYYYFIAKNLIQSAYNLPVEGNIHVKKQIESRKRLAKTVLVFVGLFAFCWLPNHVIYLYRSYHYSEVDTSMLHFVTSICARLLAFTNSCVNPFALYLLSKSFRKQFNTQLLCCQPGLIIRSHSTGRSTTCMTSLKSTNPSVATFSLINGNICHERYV

[1] = molecular target: T1, endogenous human BRS-3 in NCI-N417 cells (Homo sapiens, UniProt P32247); assay: Agonist pharmacology, FLIPR intracellular calcium (Fluo-3AM) in NCI-N417 cells; format: cell-based
T1 construct: Agonist Pharmacology at the Endogenous Human BRS-3 in NCI-N417 Cells; endogenous in cells; host or cells: NCI-N417 cells
T1 sequence (P32247 1-399): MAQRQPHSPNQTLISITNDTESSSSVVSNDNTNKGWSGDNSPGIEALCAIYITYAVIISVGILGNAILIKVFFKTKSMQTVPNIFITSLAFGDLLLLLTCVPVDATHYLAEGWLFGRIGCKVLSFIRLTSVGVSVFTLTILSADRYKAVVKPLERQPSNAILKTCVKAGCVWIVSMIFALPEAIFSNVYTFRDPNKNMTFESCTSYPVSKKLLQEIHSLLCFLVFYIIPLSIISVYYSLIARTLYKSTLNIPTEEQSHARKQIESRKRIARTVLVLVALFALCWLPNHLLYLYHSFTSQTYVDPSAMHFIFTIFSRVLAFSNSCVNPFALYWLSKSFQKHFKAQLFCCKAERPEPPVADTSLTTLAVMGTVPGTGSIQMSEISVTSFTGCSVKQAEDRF
Method: Agonist Pharmacology at the Endogenous Human BRS-3 in NCI-N417 Cells
NCI-N417 cells were seeded into Costar 96 well black walled plates (30,000 cells per well), cultured overnight in RPMI 1640 medium containing 10% foetal calf serum and 1% L-glutamine, and then loaded with the cytoplasmic calcium indicator Fluo-3AM (4 μM) in the presence of 2.5 mM probenecid at 37° C. for 60 min. The cells were then washed 4× with, and finally resuspended in, Tyrode's medium containing 2.5 mM probenecid. Fluorescence was then monitored using a FLIPR (λEX=488 nm, λEM=540 nm) before and after the addition of various ligands (10 pM-10 μM), as described previously (Smart et al (1999). Br. J. Pharmacol. 128:1-4).

[2] = test system: organotypic hippocampal slice cultures; assay: Oxygen/glucose deprivation model in organotypic hippocampal slice cultures; format: cell-based
hippocampal neurones = assay: Neurotoxicity assay (MTT cell survival) in primary hippocampal cell culture; format: cell-based, rat; conditions: sub-maximal neurotoxicity by Mg-free Locke's solution with glycine and histamine, MTT 24 h after insult
Method: Hippocampi were isolated from embryonic Sprague Dawley rats (gestational age 17.5 days; Charles River), incubated with 0.08% (w/v) trypsin, and dissociated in Neurobasal medium containing 10% heat-inactivated fetal calf serum (Skaper et al.(1990) Methods in Neurosciences, Vol. 2 (Conn P. M., ed), pp. 17-33 Academic Press, San Diego). Cells were pelleted by centrifugation (200 g, 5 min) and resuspended in Neurobasal medium containing B27 supplements (with antioxidants), 25 μM glutamate, 1 mM sodium pyruvate, 2 mM L-glutamine, 50 U/ml penicillin, and 50 μg/ml streptomycin. The cell suspension was plated onto poly-D-lysine (10 μg/ml) coated 48-well culture plates (Nunc), at a density of 4.5×10^4 cells per cm^2. Cultures were maintained at 37° C. in a humidified atmosphere of 5% CO2-95% air. […]
Cultures were washed once with Locke's solution (pH 7.0-7.4) (Skaper et al. (1990) supra) with or without 1 mM magnesium chloride (MgCl2). […] Cell survival was quantified 24 h after the insult by a colorimetric reaction with 3-(4,5-dimethylthiazol-2-yl)-2,5-diphenyltetrazolium bromide (MTT) (Mosmann (1983) J. Immunol. Methods 65:55-63; Manthorpe et al. (1986) Dev. Brain Res. 25:191-198; Skaper et al., (1990) supra). Absolute MTT values obtained were normalized and expressed as a percentage of sham-treated sister cultures (defined as 100%).

cerebellar granule cells = assay: Glutamate-induced excitotoxicity in cerebellar granule cells; format: cell-based
Description: However, in the cerebellar granule cells [D-Phe^6, βAla^11, Phe^13, Nle^14]Bombesin(6-14) had no effect on glutamate-induced excitotoxicity.

BRS3 = molecular target: T2, BRS3 (Homo sapiens, UniProt P32247); conditions: background statement, in words; cited from earlier work
T2 sequence (P32247 1-399): T1 sequence (P32247 1-399)

Sequence of BB1 receptor (P28336 whole entry): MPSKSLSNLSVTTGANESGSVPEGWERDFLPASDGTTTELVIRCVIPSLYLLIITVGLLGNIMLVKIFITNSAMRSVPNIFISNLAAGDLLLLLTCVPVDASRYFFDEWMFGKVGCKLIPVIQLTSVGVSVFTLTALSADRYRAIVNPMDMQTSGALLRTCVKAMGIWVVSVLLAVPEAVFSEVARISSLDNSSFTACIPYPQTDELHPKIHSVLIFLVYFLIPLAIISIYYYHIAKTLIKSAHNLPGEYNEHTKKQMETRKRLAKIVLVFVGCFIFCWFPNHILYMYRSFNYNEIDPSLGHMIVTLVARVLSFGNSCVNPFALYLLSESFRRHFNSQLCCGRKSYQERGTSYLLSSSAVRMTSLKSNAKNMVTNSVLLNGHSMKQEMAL

| SMILES | affinity at the BB1 receptor (BB1 receptor) | activity at the BB2 receptor (BB2 receptor) | EC50 [1] | Efficacy ([1]; calcium mobilisation, FLIPR, NCI-N417 cells, efficacy in words) | neuroprotection [2] | pEC50 for inhibition of damage (hippocampal neurones) | effect on glutamate-induced excitotoxicity (cerebellar granule cells) | affinity at BRS3 (BRS3) |
| --- | --- | --- | --- | --- | --- | --- | --- | --- |
| CC(C)c1cccc(C(C)C)c1NC(=O)N[C@@](C)(Cc1c[nH]c2ccccc12)C(=O)NCC1(c2ccccn2)CCCCC1 [PD 165929] | 7.6 nM | inactive | – | – | – | – | – | – |
| CCCC[C@H](NC(=O)[C@H](Cc1ccccc1)NC(=O)[C@H](Cc1c[nH]cn1)NC(=O)CCNC(=O)[C@@H](NC(=O)[C@H](C)NC(=O)[C@H](Cc1c[nH]c2ccccc12)NC(=O)[C@H](CCC(N)=O)NC(=O)[C@H](N)Cc1ccccc1)C(C)C)C(N)=O [[D-Phe^6, βAla^11, Phe^13, Nle^14]Bombesin(6-14)] (H-[dF]QWAV[βAla]HF[Nle]-NH2; N-terminus and C-terminus assumed) | – | – | 13.2 nM | full | neuroprotective | 7.3±0.1 | no effect | low nM affinity |
